# Values joined by “and” are separate entries in the source; they are usually repeats but may differ in a detail not shown here. Equal values may be shown once. Inconclusive results are not listed.
# Test system: Lewis lung carcinoma i.m., BDF1 mice, T/C %
# Experiment: NCI In Vivo Anticancer Drug Screen. Data for tumor model Lewis Lung Carcinoma (intramuscular) in B6D2F1 (BDF1) mice
# Protocol: The antitumor activity of compounds was measured in mice bearing transplantable tumors. Survival or tumor size were measured and the results are expressed as the measurement made in the treated group (T) divided by the measurement made in the vehicle treated control group (C). The tumor model used in this assay is Lewis Lung Carcinoma (intramuscular) in B6D2F1 (BDF1) mice
smiles,measurement,setting,value
Nc1ccn(C2OC(COP(=O)(O)O)C(O)C2O)c(=O)n1 (centres undefined),T/C,"endpoint: mean tumor weight, dose: 19.6 mg/kg/injection, schedule: Q01DX011 (ip), vehicle: saline, higher = larger tumour",68 % of control
same,T/C,"endpoint: median survival time, dose: 19.6 mg/kg/injection, schedule: Q01DX011 (ip), vehicle: saline, higher = longer survival",94 % of control and 96 % of control
same,T/C,"endpoint: median survival time, dose: 32.6 mg/kg/injection, schedule: Q01DX011 (ip), vehicle: saline, higher = longer survival",43 % of control
same,T/C,"endpoint: median survival time, dose: 54.0 mg/kg/injection, schedule: Q01DX011 (ip), vehicle: saline, higher = longer survival",42 % of control
same,T/C,"endpoint: median survival time, dose: 90.0 mg/kg/injection, schedule: Q01DX011 (ip), vehicle: saline, higher = longer survival",39 % of control
CN(N=O)C(N)=O,T/C,"endpoint: median survival time, dose: 3.12 mg/kg/injection, schedule: Q01DX015 (ip), vehicle: saline, higher = longer survival",98 % of control
same,T/C,"endpoint: median survival time, dose: 6.25 mg/kg/injection, schedule: Q01DX015 (ip), vehicle: saline, higher = longer survival",103 % of control
same,T/C,"endpoint: median survival time, dose: 6.25 mg/kg/injection, schedule: Q07DX003 (ip), vehicle: saline, higher = longer survival",94 % of control
same,T/C,"endpoint: median survival time, dose: 12.5 mg/kg/injection, schedule: Q01DX015 (ip), vehicle: saline, higher = longer survival",115 % of control
same,T/C,"endpoint: median survival time, dose: 12.5 mg/kg/injection, schedule: Q07DX003 (ip), vehicle: saline, higher = longer survival",93 % of control
same,T/C,"endpoint: median survival time, dose: 25.0 mg/kg/injection, schedule: Q07DX003 (ip), vehicle: saline, higher = longer survival",86 % of control
CC(CN1CC(=O)NC(=O)C1)N1CC(=O)NC(=O)C1 (centres undefined),T/C,"endpoint: mean tumor weight, dose: 6.25 mg/kg/injection, schedule: Q01DX005 (ip), vehicle: Klucel (hydroxypropylcellulose) (HPC), higher = larger tumour",61 % of control
same,T/C,"endpoint: mean tumor weight, dose: 6.25 mg/kg/injection, schedule: Q01DX009 (ip), vehicle: Klucel (hydroxypropylcellulose) (HPC), higher = larger tumour",49 % of control
same,T/C,"endpoint: mean tumor weight, dose: 6.25 mg/kg/injection, schedule: Q01DX011 (ip), vehicle: Klucel (hydroxypropylcellulose) (HPC), higher = larger tumour",73 % of control
same,T/C,"endpoint: mean tumor weight, dose: 6.25 mg/kg/injection, schedule: Q01DX017 (ip), vehicle: Klucel (hydroxypropylcellulose) (HPC), higher = larger tumour",57 % of control
same,T/C,"endpoint: mean tumor weight, dose: 12.5 mg/kg/injection, schedule: Q01DX005 (ip), vehicle: Klucel (hydroxypropylcellulose) (HPC), higher = larger tumour",62 % of control
same,T/C,"endpoint: mean tumor weight, dose: 12.5 mg/kg/injection, schedule: Q01DX009 (ip), vehicle: Klucel (hydroxypropylcellulose) (HPC), higher = larger tumour",59 % of control
same,T/C,"endpoint: mean tumor weight, dose: 12.5 mg/kg/injection, schedule: Q01DX011 (ip), vehicle: Klucel (hydroxypropylcellulose) (HPC), higher = larger tumour",52 % of control
same,T/C,"endpoint: mean tumor weight, dose: 12.5 mg/kg/injection, schedule: Q01DX011 (ip), vehicle: steriod suspending solution, higher = larger tumour",83 % of control and 85 % of control
same,T/C,"endpoint: mean tumor weight, dose: 12.5 mg/kg/injection, schedule: Q01DX017 (ip), vehicle: Klucel (hydroxypropylcellulose) (HPC), higher = larger tumour",49 % of control
same,T/C,"endpoint: mean tumor weight, dose: 25.0 mg/kg/injection, schedule: Q01DX005 (ip), vehicle: Klucel (hydroxypropylcellulose) (HPC), higher = larger tumour",50 % of control
same,T/C,"endpoint: mean tumor weight, dose: 25.0 mg/kg/injection, schedule: Q01DX009 (ip), vehicle: Klucel (hydroxypropylcellulose) (HPC), higher = larger tumour",26 % of control
same,T/C,"endpoint: mean tumor weight, dose: 25.0 mg/kg/injection, schedule: Q01DX011 (ip), vehicle: Klucel (hydroxypropylcellulose) (HPC), higher = larger tumour",39 % of control
same,T/C,"endpoint: mean tumor weight, dose: 25.0 mg/kg/injection, schedule: Q01DX017 (ip), vehicle: Klucel (hydroxypropylcellulose) (HPC), higher = larger tumour",44 % of control
same,T/C,"endpoint: mean tumor weight, dose: 25.0 mg/kg/injection, schedule: Q04DX003 (ip), vehicle: Klucel (hydroxypropylcellulose) (HPC), higher = larger tumour",99 % of control
same,T/C,"endpoint: mean tumor weight, dose: 25.0 mg/kg/injection, schedule: Q04DX005 (ip), vehicle: Klucel (hydroxypropylcellulose) (HPC), higher = larger tumour",104 % of control
same,T/C,"endpoint: mean tumor weight, dose: 50.0 mg/kg/injection, schedule: Q01DX005 (ip), vehicle: Klucel (hydroxypropylcellulose) (HPC), higher = larger tumour",49 % of control
same,T/C,"endpoint: mean tumor weight, dose: 50.0 mg/kg/injection, schedule: Q01DX009 (ip), vehicle: Klucel (hydroxypropylcellulose) (HPC), higher = larger tumour",32 % of control
same,T/C,"endpoint: mean tumor weight, dose: 50.0 mg/kg/injection, schedule: Q01DX011 (ip), vehicle: Klucel (hydroxypropylcellulose) (HPC), higher = larger tumour",14 % of control
same,T/C,"endpoint: mean tumor weight, dose: 50.0 mg/kg/injection, schedule: Q04DX003 (ip), vehicle: Klucel (hydroxypropylcellulose) (HPC), higher = larger tumour",80 % of control
same,T/C,"endpoint: mean tumor weight, dose: 50.0 mg/kg/injection, schedule: Q04DX005 (ip), vehicle: Klucel (hydroxypropylcellulose) (HPC), higher = larger tumour",85 % of control
same,T/C,"endpoint: mean tumor weight, dose: 100.0 mg/kg/injection, schedule: Q01DX005 (ip), vehicle: Klucel (hydroxypropylcellulose) (HPC), higher = larger tumour",21 % of control
same,T/C,"endpoint: mean tumor weight, dose: 100.0 mg/kg/injection, schedule: Q04DX003 (ip), vehicle: Klucel (hydroxypropylcellulose) (HPC), higher = larger tumour",70 % of control and 80 % of control
same,T/C,"endpoint: mean tumor weight, dose: 100.0 mg/kg/injection, schedule: Q04DX005 (ip), vehicle: Klucel (hydroxypropylcellulose) (HPC), higher = larger tumour",78 % of control
same,T/C,"endpoint: mean tumor weight, dose: 200.0 mg/kg/injection, schedule: Q04DX003 (ip), vehicle: Klucel (hydroxypropylcellulose) (HPC), higher = larger tumour",50 % of control and 58 % of control
same,T/C,"endpoint: mean tumor weight, dose: 200.0 mg/kg/injection, schedule: Q04DX005 (ip), vehicle: Klucel (hydroxypropylcellulose) (HPC), higher = larger tumour",56 % of control
same,T/C,"endpoint: mean tumor weight, dose: 400.0 mg/kg/injection, schedule: Q04DX003 (ip), vehicle: Klucel (hydroxypropylcellulose) (HPC), higher = larger tumour",6 % of control
same,T/C,"endpoint: mean tumor weight, dose: 400.0 mg/kg/injection, schedule: Q04DX005 (ip), vehicle: Klucel (hydroxypropylcellulose) (HPC), higher = larger tumour",7 % of control
same,T/C,"endpoint: median survival time, dose: 6.25 mg/kg/injection, schedule: Q01DX005 (ip), vehicle: Klucel (hydroxypropylcellulose) (HPC), higher = longer survival",111 % of control
same,T/C,"endpoint: median survival time, dose: 6.25 mg/kg/injection, schedule: Q01DX009 (ip), vehicle: Klucel (hydroxypropylcellulose) (HPC), higher = longer survival",105 % of control
same,T/C,"endpoint: median survival time, dose: 6.25 mg/kg/injection, schedule: Q01DX011 (ip), vehicle: Klucel (hydroxypropylcellulose) (HPC), higher = longer survival",117 % of control
same,T/C,"endpoint: median survival time, dose: 6.25 mg/kg/injection, schedule: Q01DX017 (ip), vehicle: Klucel (hydroxypropylcellulose) (HPC), higher = longer survival",113 % of control
same,T/C,"endpoint: median survival time, dose: 12.5 mg/kg/injection, schedule: Q01DX005 (ip), vehicle: Klucel (hydroxypropylcellulose) (HPC), higher = longer survival",96 % of control
same,T/C,"endpoint: median survival time, dose: 12.5 mg/kg/injection, schedule: Q01DX009 (ip), vehicle: Klucel (hydroxypropylcellulose) (HPC), higher = longer survival",100 % of control
same,T/C,"endpoint: median survival time, dose: 12.5 mg/kg/injection, schedule: Q01DX011 (ip), vehicle: Klucel (hydroxypropylcellulose) (HPC), higher = longer survival",92 % of control
same,T/C,"endpoint: median survival time, dose: 12.5 mg/kg/injection, schedule: Q01DX017 (ip), vehicle: Klucel (hydroxypropylcellulose) (HPC), higher = longer survival",86 % of control
same,T/C,"endpoint: median survival time, dose: 15.0 mg/kg/injection, schedule: Q01DX011 (ip), vehicle: carboxymethylcellulose (CMC), higher = longer survival",100 % of control
same,T/C,"endpoint: median survival time, dose: 25.0 mg/kg/injection, schedule: Q01DX005 (ip), vehicle: Klucel (hydroxypropylcellulose) (HPC), higher = longer survival",94 % of control
same,T/C,"endpoint: median survival time, dose: 25.0 mg/kg/injection, schedule: Q01DX009 (ip), vehicle: Klucel (hydroxypropylcellulose) (HPC), higher = longer survival",111 % of control
same,T/C,"endpoint: median survival time, dose: 25.0 mg/kg/injection, schedule: Q01DX011 (ip), vehicle: Klucel (hydroxypropylcellulose) (HPC), higher = longer survival",98 % of control
same,T/C,"endpoint: median survival time, dose: 25.0 mg/kg/injection, schedule: Q04DX003 (ip), vehicle: Klucel (hydroxypropylcellulose) (HPC), higher = longer survival",98 % of control
same,T/C,"endpoint: median survival time, dose: 25.0 mg/kg/injection, schedule: Q04DX005 (ip), vehicle: Klucel (hydroxypropylcellulose) (HPC), higher = longer survival",103 % of control
same,T/C,"endpoint: median survival time, dose: 30.0 mg/kg/injection, schedule: Q01DX011 (ip), vehicle: carboxymethylcellulose (CMC), higher = longer survival",105 % of control
same,T/C,"endpoint: median survival time, dose: 50.0 mg/kg/injection, schedule: Q01DX005 (ip), vehicle: Klucel (hydroxypropylcellulose) (HPC), higher = longer survival",105 % of control
same,T/C,"endpoint: median survival time, dose: 50.0 mg/kg/injection, schedule: Q01DX009 (ip), vehicle: Klucel (hydroxypropylcellulose) (HPC), higher = longer survival",94 % of control
same,T/C,"endpoint: median survival time, dose: 50.0 mg/kg/injection, schedule: Q01DX011 (ip), vehicle: Klucel (hydroxypropylcellulose) (HPC), higher = longer survival",113 % of control
same,T/C,"endpoint: median survival time, dose: 50.0 mg/kg/injection, schedule: Q04DX003 (ip), vehicle: Klucel (hydroxypropylcellulose) (HPC), higher = longer survival",96 % of control
same,T/C,"endpoint: median survival time, dose: 50.0 mg/kg/injection, schedule: Q04DX005 (ip), vehicle: Klucel (hydroxypropylcellulose) (HPC), higher = longer survival",100 % of control
same,T/C,"endpoint: median survival time, dose: 100.0 mg/kg/injection, schedule: Q01DX001 (ip), vehicle: other, higher = longer survival",89 % of control
same,T/C,"endpoint: median survival time, dose: 100.0 mg/kg/injection, schedule: Q01DX001 (ip), vehicle: steriod suspending solution, higher = longer survival",93 % of control
same,T/C,"endpoint: median survival time, dose: 100.0 mg/kg/injection, schedule: Q01DX005 (ip), vehicle: Klucel (hydroxypropylcellulose) (HPC), higher = longer survival",119 % of control
same,T/C,"endpoint: median survival time, dose: 100.0 mg/kg/injection, schedule: Q04DX003 (ip), vehicle: Klucel (hydroxypropylcellulose) (HPC), higher = longer survival",90 % of control and 108 % of control (2×)
same,T/C,"endpoint: median survival time, dose: 100.0 mg/kg/injection, schedule: Q04DX005 (ip), vehicle: Klucel (hydroxypropylcellulose) (HPC), higher = longer survival",101 % of control
same,T/C,"endpoint: median survival time, dose: 200.0 mg/kg/injection, schedule: Q01DX001 (ip), vehicle: other, higher = longer survival",86 % of control
same,T/C,"endpoint: median survival time, dose: 200.0 mg/kg/injection, schedule: Q01DX001 (ip), vehicle: steriod suspending solution, higher = longer survival",93 % of control
same,T/C,"endpoint: median survival time, dose: 200.0 mg/kg/injection, schedule: Q04DX003 (ip), vehicle: Klucel (hydroxypropylcellulose) (HPC), higher = longer survival",111 % of control and 115 % of control and 117 % of control
same,T/C,"endpoint: median survival time, dose: 200.0 mg/kg/injection, schedule: Q04DX005 (ip), vehicle: Klucel (hydroxypropylcellulose) (HPC), higher = longer survival",115 % of control
same,T/C,"endpoint: median survival time, dose: 400.0 mg/kg/injection, schedule: Q01DX001 (ip), vehicle: other, higher = longer survival",76 % of control
same,T/C,"endpoint: median survival time, dose: 400.0 mg/kg/injection, schedule: Q04DX003 (ip), vehicle: Klucel (hydroxypropylcellulose) (HPC), higher = longer survival",123 % of control
same,T/C,"endpoint: median survival time, dose: 800.0 mg/kg/injection, schedule: Q01DX001 (ip), vehicle: other, higher = longer survival",78 % of control
same,T/C,"endpoint: median survival time, dose: 800.0 mg/kg/injection, schedule: Q01DX001 (ip), vehicle: steriod suspending solution, higher = longer survival",87 % of control
same,T/C,"endpoint: median survival time, dose: 800.0 mg/kg/injection, schedule: Q04DX003 (ip), vehicle: Klucel (hydroxypropylcellulose) (HPC), higher = longer survival",29 % of control
FC(F)c1nc2nc(Cl)c(Cl)nc2[nH]1,T/C,"endpoint: median survival time, dose: 4.0 mg/kg/injection, schedule: Q01DX011 (ip), vehicle: saline, higher = longer survival",92 % of control
same,T/C,"endpoint: median survival time, dose: 64.0 mg/kg/injection, schedule: Q01DX011 (ip), vehicle: saline, higher = longer survival",96 % of control
